Results reported in patent publication US20240270762A1, “PENICILLIN-BINDING PROTEIN INHIBITORS” (priority 2021, published 2024).
In brackets after ≈: the same amount, converted by molar mass. Read-outs that look alike come from different tables or passages of the source.

Key:
P. aeruginosa ATCC 35151 = assay: microbe, parasite or virus in culture; format: cell-based; conditions: Pseudomonas aeruginosa, ATCC35151, read-out: Minimum inhibitory concentration, P. aeruginosa ATCC 35151
P. aeruginosa ATCC 27853 = assay: microbe, parasite or virus in culture; format: cell-based; conditions: Pseudomonas aeruginosa, ATCC27853, read-out: Minimum inhibitory concentration, P. aeruginosa ATCC 27853
[1] = system: B. thailandensis ATCC 700388; assay: microbe, parasite or virus in culture; format: cell-based; conditions: Burkholderia thailandensis, ATCC700388, read-out: Minimum inhibitory concentration (MIC), B. thailandensis ATCC 700388
A. baumannii CDC-0033 = assay: microbe, parasite or virus in culture; format: cell-based; conditions: Acinetobacter baumannii, CDC0033, read-out: MIC, A. baumannii CDC-0033
A. baumannii PBP1a = target: T1, A. baumannii PBP1a (Acinetobacter baumannii, UniProt A0ABX6CK30); assay: Bocillin-FL competition binding via gel filtration, A. baumannii PBP1a
T1 sequence (A0ABX6CK30 1-851): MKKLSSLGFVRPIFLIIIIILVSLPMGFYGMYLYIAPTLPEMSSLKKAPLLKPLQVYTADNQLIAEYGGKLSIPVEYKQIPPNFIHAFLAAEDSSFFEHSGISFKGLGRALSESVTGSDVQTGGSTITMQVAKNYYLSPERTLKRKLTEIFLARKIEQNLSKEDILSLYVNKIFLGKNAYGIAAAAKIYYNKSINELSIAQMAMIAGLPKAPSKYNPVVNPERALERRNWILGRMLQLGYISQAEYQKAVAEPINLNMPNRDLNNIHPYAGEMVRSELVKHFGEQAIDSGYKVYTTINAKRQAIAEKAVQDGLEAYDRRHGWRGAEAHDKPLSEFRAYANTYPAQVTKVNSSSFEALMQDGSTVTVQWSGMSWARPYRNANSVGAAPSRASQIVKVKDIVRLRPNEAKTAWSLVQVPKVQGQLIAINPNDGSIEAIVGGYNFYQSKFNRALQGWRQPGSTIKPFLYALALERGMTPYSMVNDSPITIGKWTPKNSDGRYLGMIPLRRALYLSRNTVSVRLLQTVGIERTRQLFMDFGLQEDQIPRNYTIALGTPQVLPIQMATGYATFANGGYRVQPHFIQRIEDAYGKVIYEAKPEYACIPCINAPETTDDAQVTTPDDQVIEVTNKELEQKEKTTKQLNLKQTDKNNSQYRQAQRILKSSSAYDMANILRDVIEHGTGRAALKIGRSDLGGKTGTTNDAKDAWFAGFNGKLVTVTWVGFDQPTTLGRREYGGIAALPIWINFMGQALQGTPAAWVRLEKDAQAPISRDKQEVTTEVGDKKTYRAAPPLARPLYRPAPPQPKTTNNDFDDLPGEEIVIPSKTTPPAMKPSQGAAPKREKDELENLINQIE
Method in brief: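 Enzyme was pre-incubated with rising inhibitor concentrations, then Bocillin-FL was added and incubated 15 minutes more. Bound probe was separated by gel filtration and fluorescence read. EC50 came from fitting fraction of PBP labelled versus inhibitor concentration to a Hill equation with ymin, ymax and n.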

P. aeruginosa CDC-0090 = assay: microbe, parasite or virus in culture; format: cell-based; conditions: Pseudomonas aeruginosa, CDC0090, read-out: Minimum inhibitory concentration, P. aeruginosa CDC-0090
P. aeruginosa CDC-0054 = assay: microbe, parasite or virus in culture; format: cell-based; conditions: Pseudomonas aeruginosa, CDC0054, read-out: Minimum inhibitory concentration, P. aeruginosa CDC-0054
A. baumannii ATCC 17978 = assay: microbe, parasite or virus in culture; format: cell-based; conditions: Acinetobacter baumannii, ATCC17978, read-out: MIC, A. baumannii ATCC 17978
[2] = system: B. humptydooensis ATCC BAA-2767; assay: microbe, parasite or virus in culture; format: cell-based; conditions: Burkholderia humptydooensis, ATCCBAA2767, read-out: Minimum inhibitory concentration (MIC), B. humptydooensis ATCC BAA-2767
P. aeruginosa CDC-0095 = assay: microbe, parasite or virus in culture; format: cell-based; conditions: Pseudomonas aeruginosa, CDC0095, read-out: Minimum inhibitory concentration, P. aeruginosa CDC-0095
A. baumannii 1258916 = assay: microbe, parasite or virus in culture; format: cell-based, Acinetobacter baumannii; conditions: Acinetobacter baumannii, 1258916, read-out: MIC, A. baumannii 1258916
[3] = competition binding assay using Bocillin-FL via gel filtration, read-out: A. baumannii PBP1a Potency

SMILES	MIC (P. aeruginosa ATCC 35151) [µg/mL]	MIC (P. aeruginosa ATCC 27853) [µg/mL]	MIC [1] [µg/mL]	MIC (A. baumannii CDC-0033) [µg/mL]	EC50 (A. baumannii PBP1a; [3]) [µM]	MIC (P. aeruginosa CDC-0090) [µg/mL]	MIC (P. aeruginosa CDC-0054) [µg/mL]	MIC (A. baumannii ATCC 17978) [µg/mL]	MIC [2] [µg/mL]	MIC (P. aeruginosa CDC-0095) [µg/mL]	MIC (A. baumannii 1258916) [µg/mL]	EC50 (A. baumannii PBP1a) [µM]
O=C(O)c1c(F)ccc2c1OB(O)[C@@H](NC(=O)C(NC(=O)N1CCN(C3CCN(C(=O)Nc4cc(O)cc(F)c4)CC3)C(=O)C1=O)c1cc(F)c(O)c(O)c1Cl)C2 (stereo partly drawn) [Example 481, (3R)-3-(2-(2-chloro-5-fluoro-3,4-dihydroxyphenyl)-2-(4-(1-((3-fluoro-5-hydroxyphenyl)carbamoyl)piperidin-4-yl)-2,3-dioxopiperazine-1-carboxamido)acetamido)-7-fluoro-2-hydroxy-3,4-dihydro-2H-benzo[e][1,2]oxaborinine-8-carboxylic acid]	< 1	2 to 4 (≈ 2.44 to 4.88 µM)	2 to 4 (≈ 2.44 to 4.88 µM)	2 to 4 (≈ 2.44 to 4.88 µM)	< 10	2 to 4 (≈ 2.44 to 4.88 µM)	< 1	< 1	32 to 64 (≈ 39.1 to 78.2 µM)	< 1	< 1	
O=C(O)c1c(F)ccc2c1OB(O)[C@@H](NC(=O)[C@H](NC(=O)N1CCN(C3CCN(C(=O)c4cc(F)c(F)c(O)c4F)CC3)C1=O)c1cc(F)c(O)c(O)c1Cl)C2 (single isomer, unassigned) [Example 441]	< 1	2 to 4 (≈ 2.46 to 4.93 µM)	< 1	< 1	< 10	< 1	< 1	< 1	< 1	< 1	< 1	
O=C(O)c1c(F)ccc2c1OB(O)[C@@H](NC(=O)[C@H](NC(=O)N1CCN(C3CCN(C(=O)c4cc(O)c(F)c(O)c4)CC3)C1=O)c1cc(F)c(O)c(O)c1Cl)C2 (single isomer, unassigned) [Example 443]	< 1	< 1	< 1	< 1	< 10	< 1	< 1	< 1	< 1	< 1	< 1	
O=C(O)c1c(F)ccc2c1OB(O)[C@@H](NC(=O)[C@H](NC(=O)N1CCN(C3CCN(C(=O)c4ccncc4)CC3)C1=O)c1cc(F)c(O)c(O)c1Cl)C2 [Example 461, (R)-3-((R)-2-(2-chloro-5-fluoro-3,4-dihydroxyphenyl)-2-(3-(1-isonicotinoylpiperidin-4-yl)-2-oxoimidazolidine-1-carboxamido)acetamido)-7-fluoro-2-hydroxy-3,4-dihydro-2H-benzo[e][1,2]oxaborinine-8-carboxylic acid]	< 1	< 1	< 1	< 1	10 to 50	< 1	< 1	< 1	< 1	< 1	< 1	
O=C(O)c1c(F)ccc2c1OB(O)[C@@H](NC(=O)[C@H](NC(=O)N1CCN(C3CCN(C(=O)c4cccnc4)CC3)C1=O)c1cc(F)c(O)c(O)c1Cl)C2 [Example 460, (R)-3-((R)-2-(2-chloro-5-fluoro-3,4-dihydroxyphenyl)-2-(3-(1-nicotinoylpiperidin-4-yl)-2-oxoimidazolidine-1-carboxamido)acetamido)-7-fluoro-2-hydroxy-3,4-dihydro-2H-benzo[e][1,2]oxaborinine-8-carboxylic acid]	< 1	< 1	< 1	< 1		< 1	< 1	< 1	< 1	< 1	< 1	10 to 50
O=C(O)c1c(F)ccc2c1OB(O)[C@@H](NC(=O)C(NC(=O)N1CCN(C3CCN(C(=O)Nc4cc(O)cc(Cl)c4)CC3)C(=O)C1=O)c1cc(F)c(O)c(O)c1Cl)C2 (stereo partly drawn) [Example 484, (3R)-3-(2-(2-chloro-5-fluoro-3,4-dihydroxyphenyl)-2-(4-(1-((3-chloro-5-hydroxyphenyl)carbamoyl)piperidin-4-yl)-2,3-dioxopiperazine-1-carboxamido)acetamido)-7-fluoro-2-hydroxy-3,4-dihydro-2H-benzo[e][1,2]oxaborinine-8-carboxylic acid]	< 1	2 to 4 (≈ 2.39 to 4.79 µM)	32 to 64 (≈ 38.3 to 76.6 µM)	2 to 4 (≈ 2.39 to 4.79 µM)	< 10	2 to 4 (≈ 2.39 to 4.79 µM)	2 to 4 (≈ 2.39 to 4.79 µM)	< 1	> 128	2 to 4 (≈ 2.39 to 4.79 µM)	< 1	
